Read-outs that look alike come from different tables or passages of the source.
What was measured:
SARS-CoV-2 3CL-protease = SARS-CoV-2 3CL-protease (Severe acute respiratory syndrome coronavirus 2 (2019-nCoV) (SARS-CoV-2), UniProt P0DTD1); assay: SARS-CoV-2 3C-like (3CL) protease fluorescence assay (FRET); type: biochemical
[1] = test system: 229E human corona virus (hCoV); assay: 229E live virus assay; type: cell-based, hCoV-229E; conditions: Human coronavirus 229E, MRC5, 144 h, read-out: 229E EC50

Row | Compound | IC50 (SARS-CoV-2 3CL-protease; read-out: FRET IC50) | other results
1 | CC(C)C[C@@H](C(=O)N1C[C@]2(C[C@H]1C#N)C(=O)Nc1ccccc12)N(C)C(=O)c1c(Cl)cccc1Cl [Compound 64] | < 100 nM | 
2 | CC(C)C[C@@H](C(=O)N1C[C@]2(C[C@H]1C#N)C(=O)Nc1ccccc12)N(C)C(=O)c1cc2c(Cl)cccc2[nH]1 [Compound 65] | < 100 nM | 
3 | CC(C)C[C@@H](C(=O)N1C[C@]2(C[C@H]1C#N)C(=O)Nc1ccccc12)N(C)C(=O)c1cc2c(Br)ccc(Cl)c2[nH]1 [Compound 66] | < 100 nM | 
4 | CC(C)C[C@@H](C(=O)N1C[C@]2(C[C@H]1C#N)C(=O)Nc1ccccc12)N(C)C(=O)c1cc2c(C#N)cccc2[nH]1 [Compound 67] | < 100 nM | 
5 | CC(C)C[C@@H](C(=O)N1C[C@]2(C[C@H]1C#N)C(=O)Nc1ccccc12)N(C)C(=O)c1cc2cc(F)cc(F)c2[nH]1 [Compound 68] |  | IC50 (SARS-CoV-2 3CL-protease): < 100 nM
6 | CC(C)C[C@@H](C(=O)N1C[C@]2(C[C@H]1C#N)C(=O)Nc1ccccc12)N(C)C(=O)c1cc2cc(F)c(F)cc2[nH]1 [Compound 69] | < 100 nM | 
7 | CC(C)C[C@@H](C(=O)N1C[C@]2(C[C@H]1C#N)C(=O)Nc1ccccc12)N(C)C(=O)c1cc2cc(F)ccc2[nH]1 [Compound 70] | < 100 nM | 
8 | CC(C)C[C@@H](C(=O)N1C[C@]2(C[C@H]1C#N)C(=O)Nc1ccccc12)N(C)C(=O)c1cc2c(F)ccc(F)c2[nH]1 [Compound 71] | < 100 nM | 
9 | CC(C)C[C@@H](C(=O)N1C[C@]2(C[C@H]1C#N)C(=O)Nc1ccccc12)N(C)C(=O)c1cc2c(Cl)cc(F)cc2[nH]1 [Compound 72] | < 100 nM | 
10 | CC(C)C[C@@H](C(=O)N1C[C@]2(C[C@H]1C#N)C(=O)Nc1ccccc12)N(C)C(=O)c1cc2c(F)c(Cl)ccc2[nH]1 [Compound 73] | < 100 nM | 
11 | CC(C)C[C@@H](C(=O)N1C[C@]2(C[C@H]1C#N)C(=O)Nc1ccccc12)N(C)C(=O)c1cc2c(Cl)cc(Cl)cc2[nH]1 [Compound 74] | < 100 nM | 
12 | CC(C)C[C@@H](C(=O)N1C[C@]2(C[C@H]1C#N)C(=O)Nc1ccccc12)N(C)C(=O)c1n[nH]c2ccccc12 [Compound 75] | < 100 nM | 
13 | CC(C)C[C@@H](C(=O)N1C[C@]2(C[C@H]1C#N)C(=O)Nc1ccccc12)N(C)C(=O)c1cc2cc(Cl)cc(Cl)c2[nH]1 [Compound 76] | < 100 nM | 
14 | CC(C)C[C@@H](C(=O)N1C[C@]2(C[C@H]1C#N)C(=O)Nc1ccccc12)N(C)C(=O)c1[nH]c2ccc(F)cc2c1Cl [Compound 77] | 100 to 1000 nM | 
15 | CC(C)C[C@@H](C(=O)N1C[C@]2(C[C@H]1C#N)C(=O)Nc1ccccc12)N(C)C(=O)c1cc2ccccc2[nH]1 [Compound 78] | < 100 nM | 
16 | CC(C)C[C@@H](C(=O)N1C[C@]2(C[C@H]1C#N)C(=O)Nc1ccccc12)N(C)C(=O)c1cc2c(Br)cccc2[nH]1 [Compound 79] | < 100 nM | 
17 | CN(C(=O)c1cc2c(F)cccc2[nH]1)[C@@H](Cc1ccccc1)C(=O)N1C[C@]2(C[C@H]1C#N)C(=O)Nc1ccccc12 [Compound 80] | < 100 nM | 
18 | CN(C(=O)c1cc2c(F)cc(F)cc2[nH]1)[C@@H](Cc1ccccc1)C(=O)N1C[C@]2(C[C@H]1C#N)C(=O)Nc1ccccc12 [Compound 81] | < 100 nM | 
19 | CC(C)C[C@@H](C(=O)N1C[C@]2(C[C@H]1C#N)C(=O)Nc1ccccc12)N(C)C(=O)c1cc2c(OC3CC3)cccc2[nH]1 [Compound 82] | < 100 nM | 
20 | CC(C)C[C@@H](C(=O)N1C[C@]2(C[C@H]1C#N)C(=O)Nc1ccccc12)N(C)C(=O)c1cc2c(F)c(F)c(F)cc2[nH]1 [Compound 83] | < 100 nM | 

Row | Compound | IC50 (SARS-CoV-2 3CL-protease; read-out: FRET IC50) | other results
21 | CC(C)C[C@@H](C(=O)N1C[C@]2(C[C@H]1C#N)C(=O)Nc1ccccc12)N(C)C(=O)c1cc2cc(C(C)C)ccc2[nH]1 [Compound 84] | < 100 nM | 
22 | COc1cccc2[nH]c(C(=O)N(C)[C@@H](CC(C)(C)C)C(=O)N3C[C@]4(C[C@H]3C#N)C(=O)Nc3ccccc34)cc12 [Compound 85] | < 100 nM | 
23 | CN(C(=O)c1cc2c(F)c(F)ccc2[nH]1)[C@@H](CC(C)(C)C)C(=O)N1C[C@]2(C[C@H]1C#N)C(=O)Nc1ccccc12 [Compound 86] | < 100 nM | 
24 | CN(C(=O)c1cc2c(F)cccc2[nH]1)[C@@H](CC(C)(C)C)C(=O)N1C[C@]2(C[C@H]1C#N)C(=O)Nc1ccccc12 [Compound 87] | < 100 nM | 
25 | CN(C(=O)c1cc2c(F)cc(F)cc2[nH]1)[C@@H](CC(C)(C)C)C(=O)N1C[C@]2(C[C@H]1C#N)C(=O)Nc1ccccc12 [Compound 88] | < 100 nM | 
26 | CN(C(=O)OCc1ccccc1)[C@@H](CC1CCC1)C(=O)N1C[C@]2(C[C@H]1C#N)C(=O)Nc1ccccc12 [Compound 89] | < 100 nM | 
27 | CCN(C(=O)OCc1ccccc1)[C@@H](CC(C)C)C(=O)N1C[C@]2(C[C@H]1C#N)C(=O)Nc1ccccc12 [Compound 90] | < 100 nM | 
28 | CN(C(=O)c1cc2c(F)cc(F)cc2[nH]1)[C@@H](CC1CCC1)C(=O)N1C[C@]2(C[C@H]1C#N)C(=O)Nc1ccccc12 [Compound 91] | < 100 nM | 
29 | COc1cccc2[nH]c(C(=O)N(C)[C@@H](CC3CCC3)C(=O)N3C[C@]4(C[C@H]3C#N)C(=O)Nc3ccccc34)cc12 [Compound 92] | < 100 nM | 
30 | CN(C(=O)c1cc2c(F)cccc2[nH]1)[C@@H](CC1CCC1)C(=O)N1C[C@]2(C[C@H]1C#N)C(=O)Nc1ccccc12 [Compound 93] | < 100 nM | 
31 | CN(C(=O)c1cc2c(OC3CC3)cccc2[nH]1)[C@@H](CC1CCC1)C(=O)N1C[C@]2(C[C@H]1C#N)C(=O)Nc1ccccc12 [Compound 94] | < 100 nM | 
32 | CCN(C(=O)c1cc2c(F)cccc2[nH]1)[C@@H](CC(C)C)C(=O)N1C[C@]2(C[C@H]1C#N)C(=O)Nc1ccccc12 [Compound 95] | < 100 nM | 
33 | C=CCN(C(=O)OCc1ccccc1)[C@@H](CC(C)C)C(=O)N1C[C@]2(C[C@H]1C#N)C(=O)Nc1ccccc12 [Compound 96] | < 100 nM | 
34 | CCCN(C(=O)OCc1ccccc1)[C@@H](CC(C)C)C(=O)N1C[C@]2(C[C@H]1C#N)C(=O)Nc1ccccc12 [Compound 97] | < 100 nM | 
35 | CCCN(C(=O)c1cc2c(F)cccc2[nH]1)[C@@H](CC(C)C)C(=O)N1C[C@]2(C[C@H]1C#N)C(=O)Nc1ccccc12 [Compound 98] | < 100 nM | 
36 | CCCN(C(=O)c1cc2c(F)cc(F)cc2[nH]1)[C@@H](CC(C)C)C(=O)N1C[C@]2(C[C@H]1C#N)C(=O)Nc1ccccc12 [Compound 99] | < 100 nM | 
37 | CC(C)CC[C@@H](C(=O)N1C[C@]2(C[C@H]1C#N)C(=O)Nc1ccccc12)N(C)C(=O)OCc1ccccc1 [Compound 100] | < 100 nM | 
38 | CN(C(=O)OCc1ccccc1)[C@@H](CC(C)(C)F)C(=O)N1C[C@]2(C[C@H]1C#N)C(=O)Nc1ccccc12 [Compound 101] | < 100 nM | 
39 | CN(C(=O)OCc1ccccc1)[C@@H](CC1CC1)C(=O)N1C[C@]2(C[C@H]1C#N)C(=O)Nc1ccccc12 [Compound 102] | < 100 nM | 
40 | CC(C)CC[C@@H](C(=O)N1C[C@]2(C[C@H]1C#N)C(=O)Nc1ccccc12)N(C)C(=O)c1cc2c(F)cc(F)cc2[nH]1 [Compound 104] | < 100 nM | 

Row | Compound | IC50 (SARS-CoV-2 3CL-protease; read-out: FRET IC50) | other results
41 | COc1cccc2[nH]c(C(=O)N(C)[C@@H](CCC(C)C)C(=O)N3C[C@]4(C[C@H]3C#N)C(=O)Nc3ccccc34)cc12 [Compound 105] | < 100 nM | 
42 | COc1cccc2[nH]c(C(=O)N(C)[C@@H](CC3CCCC3)C(=O)N3C[C@]4(C[C@H]3C#N)C(=O)Nc3ccccc34)cc12 [Compound 106] | < 100 nM | 
43 | CN(C(=O)c1cc2c(F)cc(F)cc2[nH]1)[C@@H](CC1CCCC1)C(=O)N1C[C@]2(C[C@H]1C#N)C(=O)Nc1ccccc12 [Compound 107] | < 100 nM | 
44 | CN(C(=O)c1cc2c(OC(F)(F)F)cccc2[nH]1)[C@@H](CC1CCCC1)C(=O)N1C[C@]2(C[C@H]1C#N)C(=O)Nc1ccccc12 [Compound 108] | < 100 nM | 
45 | CN(C(=O)c1cc2c(F)cc(F)c(F)c2[nH]1)[C@@H](CC1CCCC1)C(=O)N1C[C@]2(C[C@H]1C#N)C(=O)Nc1ccccc12 [Compound 109] | < 100 nM | 
46 | CN(C(=O)c1cc2c(F)cccc2[nH]1)[C@@H](CC1CCCCC1)C(=O)N1C[C@]2(C[C@H]1C#N)C(=O)Nc1ccccc12 [Compound 110] | < 100 nM | 
47 | CN(C(=O)c1cc2c(F)cc(F)cc2[nH]1)[C@@H](CC1CCCCC1)C(=O)N1C[C@]2(C[C@H]1C#N)C(=O)Nc1ccccc12 [Compound 111] | < 100 nM | 
48 | CN(C(=O)c1cc2c(F)c(F)ccc2[nH]1)[C@@H](CC1CCCCC1)C(=O)N1C[C@]2(C[C@H]1C#N)C(=O)Nc1ccccc12 [Compound 112] | < 100 nM | 
49 | COc1cccc2[nH]c(C(=O)N(C)[C@@H](CC3CCCCC3)C(=O)N3C[C@]4(C[C@H]3C#N)C(=O)Nc3ccccc34)cc12 [Compound 113] | < 100 nM | 
50 | COc1cccc2[nH]c(C(=O)N(C)[C@@H](CC3CC3)C(=O)N3C[C@]4(C[C@H]3C#N)C(=O)Nc3ccccc34)cc12 [Compound 114] | < 100 nM | 
51 | CN(C(=O)c1cc2c(F)cc(F)cc2[nH]1)[C@@H](CC1CC1)C(=O)N1C[C@]2(C[C@H]1C#N)C(=O)Nc1ccccc12 [Compound 115] | < 100 nM | 
52 | CN(C(=O)c1cc2c(F)cccc2[nH]1)[C@@H](CC1CC1)C(=O)N1C[C@]2(C[C@H]1C#N)C(=O)Nc1ccccc12 [Compound 116] | < 100 nM | 
53 | COc1cccc2[nH]c(C(=O)N[C@@H](CC(C)C)C(=O)N3C[C@]4(C[C@H]3C=O)C(=O)N(C)c3ccccc34)cc12 [Compound 119] | < 100 nM | 
54 | COc1cccc2[nH]c(C(=O)N[C@@H](CC(C)C)C(=O)N3C[C@]4(C[C@H]3C#N)C(=O)N(C)c3ccccc34)cc12 [Compound 120] | 100 to 1000 nM | 
55 | COc1cccc2[nH]c(C(=O)N(C)[C@@H](CC(C)C)C(=O)N3C[C@]4(C[C@H]3C#N)C(=O)N(C)c3ccccc34)cc12 [Compound 121] | < 100 nM | 
56 | CC(C)C[C@H](NC(=O)NCc1ccccc1)C(=O)N1C[C@]2(C[C@H]1C#N)C(=O)Nc1ccccc12 [Compound 122] | < 100 nM | 
57 | CN(C(=O)c1cnn(-c2ccccc2C(F)(F)F)c1)[C@@H](CC1CC1)C(=O)N1C[C@]2(C[C@H]1C#N)C(=O)Nc1ccccc12 [Compound 124] | < 100 nM | 
58 | [2H]C([2H])([2H])N(C(=O)c1cnn(C(C)(C)C)c1)[C@@H](CC1CC1)C(=O)N1C[C@]2(C[C@H]1C#N)C(=O)Nc1ccccc12 [Compound 125] |  | EC50 [1]: < 100 nM

— patent publication US11352363B1, “Spiropyrrolidine derived antiviral agents” (Enanta Pharmaceuticals, Inc., priority 2020, dated 2022)
